Measured values as given in article PMC8286840, “Identifying SARS-CoV-2 antiviral compounds by screening for small molecule inhibitors of Nsp3 papain-like protease” (Biochemical Journal, 2021).
Structures can show the parent of a compound that is named as a salt. Where two headings read alike, the source gives them in different places. Where a SMILES comes first, the peptide text is derived from it. [ ]: non-standard residue; d: D form. Nle = CCCC[C@H](N)C(=O)O

Columns and labels:
[1] = target: T1, SARS-CoV-2 PLpro (nsp3 1564–1878) (Severe acute respiratory syndrome coronavirus 2, UniProt P0DTD1); assay: biochemical; set-up: FRET-quenched peptide (Pro3) cleavage by PLpro, 10 min pre-incubation, slope over 20 min, normalised to no-compound control; settings: low concentration screen, read-out: % of control remaining
[2] = target: T1, SARS-CoV-2 PLpro (nsp3 1564–1878); assay: biochemical; set-up: FRET-quenched peptide (Pro3) cleavage by PLpro, 10 min pre-incubation, slope over 20 min, normalised to no-compound control; settings: high concentration screen, read-out: % of control remaining

Compound: NC(=O)c1cccnc1 [Nicotinamide (Niacinamide)]
- remaining activity at 1.25 µM ([1]; Well no.=4884): 97.9%
- remaining activity at 3.75 µM ([2]; Well no.=4884): 94.8%

Compound: CC(=O)N[C@@H](CSC/C=C(\C)CC/C=C(\C)CCC=C(C)C)C(=O)O [Acetyl-farnesyl-cysteine]
- remaining activity at 1.25 µM ([1]; Well no.=4342): 102%
- remaining activity at 3.75 µM ([2]; Well no.=4342): 102%

Compound: N/C(=N\C(=O)c1nc(Cl)c(N)nc1N)NCc1ccccc1 [Benzamil]
- remaining activity at 1.25 µM ([1]; Well no.=2050): 104%
- remaining activity at 3.75 µM ([2]; Well no.=2050): 104%

Compound: COc1c(C)c2c(c(O)c1C/C=C(\C)CCC(=O)O)C(=O)OC2 [Mycophenolic Acid]
- remaining activity at 1.25 µM ([1]; Well no.=1553): 100%
- remaining activity at 1.25 µM ([1]; Well no.=3415): 96.4%
- remaining activity at 3.75 µM ([2]; Well no.=1553): 99.9%
- remaining activity at 3.75 µM ([2]; Well no.=3415): 98.7%

Compound: CN1[C@@H]2CC[C@H]1CC(O)C2 (some centres unmarked) [Tropine]
- remaining activity at 1.25 µM ([1]; Well no.=3469): 105%
- remaining activity at 3.75 µM ([2]; Well no.=3469): 106%

Compound: COc1ccc2cc(OCC3(C(=O)O)CN(C(=O)c4ccc(F)cc4)C3)ccc2c1 [1-(4-fluorobenzoyl)-3-(((6-methoxynaphthalen-2-yl)oxy)methyl)azetidine-3-carboxylic acid]
- remaining activity at 1.25 µM ([1]; Well no.=5909): 103%
- remaining activity at 3.75 µM ([2]; Well no.=5909): 102%

Compound: C[C@@H]1O[C@@H](Oc2c(-c3ccc(O)c(O)c3)oc3cc(O)cc(O)c3c2=O)[C@H](O)[C@H](O)[C@H]1O [Quercitrin]
- remaining activity at 1.25 µM ([1]; Well no.=3112): 96.4%
- remaining activity at 3.75 µM ([2]; Well no.=3112): 96.5%

Compound: CC1=NN(c2ccccc2)C(=O)C1 [MCI-186]
- remaining activity at 1.25 µM ([1]; Well no.=3901): 103%
- remaining activity at 3.75 µM ([2]; Well no.=3901): 103%

Compound: CC[C@]12CCCN3CCc4c(n(c5ccccc45)C(=O)C1)[C@@H]32 [(-)-Eburnamonine]
- remaining activity at 1.25 µM ([1]; Well no.=3380): 96.6%
- remaining activity at 3.75 µM ([2]; Well no.=3380): 95%

Compound: CC(=O)O[C@H]1C[C@@H]2CC[C@@H]3[C@H](CC[C@@]4(C)[C@H]3C[C@H]([N+]3(C)CCCCC3)[C@@H]4OC(C)=O)[C@@]2(C)C[C@@H]1N1CCCCC1 [Vecuronium]
- remaining activity at 1.25 µM ([1]; Well no.=2014): 103%
- remaining activity at 3.75 µM ([2]; Well no.=2014): 103%

Compound: CC[C@]1(O)C[C@H]2CN(CCc3c([nH]c4ccccc34)[C@@](C(=O)OC)(c3cc4c(cc3OC)N(C=O)[C@H]3[C@@](O)(C(=O)OC)[C@H](OC(C)=O)[C@]5(CC)C=CCN6CC[C@]43[C@@H]65)C2)C1 [Vincristine sulfate]
- remaining activity at 1.25 µM ([1]; Well no.=1194): 97.3%
- remaining activity at 1.25 µM ([1]; Well no.=2035): 104%
- remaining activity at 1.25 µM ([1]; Well no.=3226): 102%
- remaining activity at 3.75 µM ([2]; Well no.=1194): 97.6%
- remaining activity at 3.75 µM ([2]; Well no.=3226): 105%

Compound: NNC(=O)c1ccncc1 [Isoniazid]
- remaining activity at 1.25 µM ([1]; Well no.=1744): 101%
- remaining activity at 3.75 µM ([2]; Well no.=1744): 103%

Compound: O=C1CSC(c2ccccc2Cl)c2cc(Cl)ccc2N1 (centres unmarked) [CGP-37157]
- remaining activity at 1.25 µM ([1]; Well no.=5845): 106%
- remaining activity at 3.75 µM ([2]; Well no.=5845): 106%

Compound: O=c1ccc2ccc(O)c(O)c2o1 [Daphnetin]
- remaining activity at 1.25 µM ([1]; Well no.=405): 102%
- remaining activity at 3.75 µM ([2]; Well no.=405): 101%

Compound: CCCC[C@@H](C=O)NC(=O)[C@H](CC(C)C)NC(=O)[C@H](CC(C)C)NC(C)=O [(2S)-2-(acetylamino)-N-[(1S)-1-({[(1S)-1-formylpentyl]amino}carbonyl)-3-methylbutyl]-4-methylpentanamide] (Ac-Leu-Leu-[Nle]-aldehyde)
- remaining activity at 1.25 µM ([1]; Well no.=5774): 95.7%
- remaining activity at 3.75 µM ([2]; Well no.=5774): 95.3%

Compound: CC1(C)S[C@@H]2[C@H](NC(=O)[C@H](N)c3ccc(O)cc3)C(=O)N2[C@H]1C(=O)O [Amoxicillin]
- remaining activity at 1.25 µM ([1]; Well no.=2000): 98.8%
- remaining activity at 1.25 µM ([1]; Well no.=7654): 97%
- remaining activity at 3.75 µM ([2]; Well no.=2000): 100%
- remaining activity at 3.75 µM ([2]; Well no.=7654): 97.6%

Compound: CC(=O)NCCc1c[nH]c2ccccc12 [N-Acetyltryptamine]
- remaining activity at 1.25 µM ([1]; Well no.=100): 97.2%
- remaining activity at 3.75 µM ([2]; Well no.=100): 96.6%

Compound: CCOC(=O)C1=C[C@]2(CC)CCCN3CCc4c(n1c1ccccc41)[C@@H]32 [Vinpocetine]
- remaining activity at 1.25 µM ([1]; Well no.=1432): 99%
- remaining activity at 1.25 µM ([1]; Well no.=2158): 98.7%
- remaining activity at 1.25 µM ([1]; Well no.=3228): 103%
- remaining activity at 3.75 µM ([2]; Well no.=1432): 102%
- remaining activity at 3.75 µM ([2]; Well no.=3228): 108%

Compound: O=c1ccn([C@@H]2O[C@H](CO)[C@@H](O)[C@H]2O)c(=O)[nH]1 [Uridin]
- remaining activity at 1.25 µM ([1]; Well no.=8849): 101%
- remaining activity at 3.75 µM ([2]; Well no.=6399): 106%
- remaining activity at 3.75 µM ([2]; Well no.=8849): 94.8%

Compound: Fc1ccc(C(OCCN2CCN(CCCc3ccccc3)CC2)c2ccc(F)cc2)cc1 [GBR-12909 dihydrochloride]
- remaining activity at 1.25 µM ([1]; Well no.=590): 98.5%
- remaining activity at 3.75 µM ([2]; Well no.=590): 98.5%

Compound: O=C1C2CCN(CC2)C1(CO)CO [PRIMA-1]
- remaining activity at 1.25 µM ([1]; Well no.=6486): 96.7%
- remaining activity at 3.75 µM ([2]; Well no.=6486): 97.6%

Compound: C=C(CC)C(=O)c1ccc(OCC(=O)O)c(Cl)c1Cl [Ethacrynic Acid]
- remaining activity at 1.25 µM ([1]; Well no.=1865): 95.6%
- remaining activity at 3.75 µM ([2]; Well no.=1865): 94.6%

Compound: C[C@]12CCC(=O)C=C1CC[C@@H]1[C@@H]2C(=O)C[C@@]2(C)[C@H]1CC[C@]2(O)C(=O)CO [Cortisone]
- remaining activity at 1.25 µM ([1]; Well no.=381): 90.6%
- remaining activity at 1.25 µM ([1]; Well no.=6485): 101%
- remaining activity at 1.25 µM ([1]; Well no.=7431): 102%
- remaining activity at 3.75 µM ([2]; Well no.=381): 93.5%
- remaining activity at 3.75 µM ([2]; Well no.=6485): 101%
- remaining activity at 3.75 µM ([2]; Well no.=7431): 100%

Compound: O=C(Nc1ccc([N+](=O)[O-])cc1Cl)c1cc(Cl)ccc1O [Niclosamide]
- remaining activity at 1.25 µM ([1]; Well no.=1093): 99.3%
- remaining activity at 3.75 µM ([2]; Well no.=1093): 97.3%

Compound: Brc1c(NC2=NCCN2)ccc2nccnc12 [UK 14,304]
- remaining activity at 1.25 µM ([1]; Well no.=1238): 98.9%
- remaining activity at 3.75 µM ([2]; Well no.=1238): 97.9%

Compound: CCCCCC(O)/C=C/C=C\CCCCCCCC(=O)O (racemic)
- remaining activity at 1.25 µM ([1]; Well no.=4382): 99.2%
- remaining activity at 3.75 µM ([2]; Well no.=4382): 96.6%

Compound: CCCCC/C=C\C[C@@H](O)/C=C/C=C/C=C\[C@@H](O)CCCC(=O)O [Leukotriene B4]
- remaining activity at 1.25 µM ([1]; Well no.=4423): 101%
- remaining activity at 3.75 µM ([2]; Well no.=4423): 97.4%

Compound: NC[C@@H](O)c1ccc(O)c(O)c1 [L(-)-Norepinephrine bitartrate]
- remaining activity at 1.25 µM ([1]; Well no.=58): 102%
- remaining activity at 3.75 µM ([2]; Well no.=58): 99.2%

Compound: NC(N)=N[C@@H](CC(=O)O)C(=O)O [Guanidinosuccinic acid]
- remaining activity at 1.25 µM ([1]; Well no.=8176): 109%
- remaining activity at 3.75 µM ([2]; Well no.=8176): 101%

Compound: COc1ccc2c(c1OC)C(=O)O[C@@H]2[C@H]1c2c(cc3c(c2OC)OCO3)CCN1C [Noscapine hydrchloride]
- remaining activity at 1.25 µM ([1]; Well no.=957): 93%
- remaining activity at 3.75 µM ([2]; Well no.=957): 95.4%

Compound: O[C@H](CNC[C@@H](O)[C@H]1CCc2cc(F)ccc2O1)[C@@H]1CCc2cc(F)ccc2O1 [Nebivolol (hydrochloride)]
- remaining activity at 1.25 µM ([1]; Well no.=8139): 105%
- remaining activity at 3.75 µM ([2]; Well no.=8139): 102%
